Several values for one entry are separate records, joined by “and”; a condition that tells them apart may be missing. Equal values may be shown once. Read-outs that look alike come from different tables or passages of the source.
How the values were obtained:
[1] = molecular target: T1, Saccharomonospora sp. CNQ-490 Tar14 (flavin-dependent tryptophan halogenase), wild type, SEQ ID NO: 3 (expressed SEQ ID NO: 4); expressed with cleaved His tag SE (Saccharomonospora piscinae, UniProt W5VG40); assay: Kinetic characterization of Tar14-catalyzed chlorination of L-tryptophan; type: biochemical; settings: Tar14, L-Trp chlorination, 30° C., pH 7.6
T1 construct: flavin reductase Tar15 and PtdH as helper enzymes
T1 sequence (W5VG40 1-534): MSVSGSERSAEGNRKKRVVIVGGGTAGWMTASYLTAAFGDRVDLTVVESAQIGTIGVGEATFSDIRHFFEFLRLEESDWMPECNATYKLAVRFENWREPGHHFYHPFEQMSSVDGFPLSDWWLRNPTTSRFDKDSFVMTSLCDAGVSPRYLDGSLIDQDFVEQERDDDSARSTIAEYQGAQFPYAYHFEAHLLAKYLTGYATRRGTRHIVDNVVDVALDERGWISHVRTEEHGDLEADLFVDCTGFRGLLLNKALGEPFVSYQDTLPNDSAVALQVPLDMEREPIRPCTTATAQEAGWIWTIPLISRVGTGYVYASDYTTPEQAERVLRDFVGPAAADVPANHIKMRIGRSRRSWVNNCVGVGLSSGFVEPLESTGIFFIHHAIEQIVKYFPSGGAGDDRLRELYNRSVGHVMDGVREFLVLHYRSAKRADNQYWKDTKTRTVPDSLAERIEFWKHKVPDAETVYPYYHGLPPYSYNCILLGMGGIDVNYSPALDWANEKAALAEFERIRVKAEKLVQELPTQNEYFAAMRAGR
From the text: To determine kinetic parameters for Tar14-catalyzed chlorination of L-tryptophan, phenol was first tested as an internal standard for quantification of the product (L-6-chlorotryptophan) formation. An HPLC method that gives separation of substrate/product/internal standard peaks (method 4) was developed (FIGS. 10A and 108). It was also verified that activity of Tar14 was not affected by the presence of phenol in the reaction mixture. Using commercial standard of L-6-chlorotryptophan and phenol mixed at known concentrations, a calibration curve was built (FIGS. 10A and 10B).
Tar14 reaction mixture of total volume 100 μL in 1.5 mL Eppendorf tube was composed of the following components:
Buffer (10 mM Tris, 10% glycerol, pH 7.6) up to 100 μL
Tar14 (added last): 2.5 μM
The reactions were incubated at 30° C. for 5, 10, 25, 45, 60, 120, and 240 min, after which the assays were quenched by addition of equal volume of HPLC grade methanol and frozen at −70° C. till further analysis by HPLC. All assays were performed in triplicates for each substrate concentration and every time point. In parallel, for each time point and substrate concentration, assays with no added phenol and with no added enzyme were used as controls.
Product formation was quantitated by calculating the ratio of peak areas of product to internal standard and fitting that value to a calibration curve. […]

[2] = system: Pseudomonas fluorescens PrnA (tryptophan halogenase), SEQ ID NO: 43; settings: cited from earlier work
[3] = system: Lechevalieria aerocolonigenes ATCC 39243 RebH (tryptophan halogenase), SEQ ID NO: 44; settings: cited from earlier work
[4] = system: Streptomyces rugosporus LL-42D005 PyrH (C5 tryptophan halogenase), SEQ ID NO: 36; settings: cited from earlier work
[5] = system: Kutzneria sp. 744 KtzR (tryptophan halogenase), SEQ ID NO: 40; settings: cited from earlier work
[6] = system: Streptomyces toxytricini NRRL 15443 SttH (tryptophan halogenase), SEQ ID NO: 39; settings: cited from earlier work
[7] = system: Streptomyces violaceusniger SPC6 Th-Hal (C6 tryptophan halogenase), SEQ ID NO: 38; settings: cited from earlier work

For `N[C@@H](Cc1c[nH]c2ccccc12)C(=O)O` [L-Trp, L-tryptophan], the kcat [1] is given as 0.0067 s⁻¹ and 0.007 ± 0.00083 s⁻¹, the Km [2] is given as 20.7 ± 0.1 µM and the kcat [2] is given as 0.0183 ± 0.0017 s⁻¹. For the same compound, the Km [3] was 28.7 ± 1.3 µM, the kcat [3] was 0.01 ± 0.0017 s⁻¹ and the Km [4] was 15.2 ± 4.2 µM. For the same compound, the kcat [4] was 0.04 ± 0.0067 s⁻¹, the Km [5] was 34.1 ± 2.1 µM and the kcat [5] was 0.0067 ± 0.0017 s⁻¹. The Km [6] was 25.3 ± 3.2 µM, the kcat [6] was 0.0283 ± 0.0017 s⁻¹ and the Km ([7]; 30° C.) was 12.2 ± 1.8 µM. The kcat ([7]; 30° C.) was 0.0717 ± 0.0083 s⁻¹, the Km ([7]; 45° C.) was 20.4 ± 1.3 µM and the kcat ([7]; 45° C.) was 0.085 ± 0.0067 s⁻¹.
